Results as given in patent US10314917B2, “Targeted polymeric inflammation-resolving nanoparticles” (The Brigham and Women's Hospital, Inc., priority 2014, dated 2019).
Where no end group is shown, it is not given here.

What was measured:
[1] = test system: liver macrophage infiltration; conditions: during dietary intervention; P<0.01; cited from earlier work
[2] = test system: zymosan-stimulated PMN infiltration; assay: In vivo murine zymosan-induced peritonitis; set-up: species or system C57BL/6J mice; conditions: 100 ng/mouse i.v.; exudates 4 h post zymosan
Description: A model of self-limited peritonitis was used to quantitatively assess resolution in vivo to determine whether the developed NPs containing Ac2-26 are anti-inflammatory and/or pro-resolving (Bannenberg 2005; Schwab 2007). Zymosan A was administered to C57BL/6J mice. In parallel, mice were then given vehicle, empty NPs as control, Ac2-26 in NPs, Scrm Ac2-26 in NPs, Ac2-26 native peptides described in detail below. Equal polymer concentration was loaded in both the NPs and Ac2-26 NPs.
1 ml of zymosan A (100 μg/mouse) in 1 ml of sterile saline was administered to female C57BL/6J mice (6-8 wk old, Charles River Laboratories, Wilmington, Mass., USA) to induce peritonitis (Bannenberg et al. J Immunol 174(7):4345-4355 (2005); Norling, et al. (2011) J Immunol 186(10):5543-5547). […]
For baseline PMN number measurements, mice were euthanized at selected time intervals (4, 12, or 24 hours post zymosan stimulation), with an overdose of isofluorane, following which peritoneal exudates were collected by lavaging with Ca^2+/Mg^2+ free phosphate buffered saline (PBS^−/−, 5 ml). Leukocytes were counted with a hemocytometer.
Peritoneal exudates were harvested 4 h post zymosan initiation, and living cells were quantified using trypan blue exclusion.
Differential cell counts were assessed via flow cytometry using an LSRII flow cytometer. […]

MCP-1 and TNFα = MCP-1 and TNFα production in LPS-activated peritoneal macrophages (ELISA); type: cell-based, murine; conditions: equivalent dose of GW3965
Description: Experiments were conducted to assess the in vitro anti-inflammatory effects of GW3965-containing NPs and their ability to regulate LXR target gene expression such as ABCA1 and SREBP-1c. LPS-activated peritoneal macrophages were treated with the indicated NPs containing equivalent doses of GW3965. The supernatant was collected for ELISA analysis of MCP-1 and TNFα. The cells were collected for RT-qPCR analysis of MCP-1 and TNFα mRNA as described below.
In the next set of experiments, GW3965-containing NPs were evaluated to see if they are able to exert anti-inflammatory effects on macrophages. Isolated murine peritoneal macrophages were first treated with lipopolysaccharide (LPS) to induce the production of pro-inflammatory factors such as MCP-1 and TNFα. The activated macrophages were then treated with an equivalent dose of GW3965 in either solution or NP form. ELISA assay was performed on the culture supernatant to determine the production of MCP-1 and TNFα.

[3] = test system: atherosclerotic lesion area; assay: Atheroprotective effect in plaque-bearing LDLr−/− mice (lesion area, Oil Red O); type: in vivo; conditions: 8 mg/kg GW3965 daily i.v. for 14 days
Description: To explore the atheroprotective effects of these NPs, plaque-bearing LDLr−/− mice were randomly divided into five groups and treated with the following regimens with equivalent doses of 8 mg/kg entrapped GW3965 via daily intravenous administration for 14 consecutive days: i) empty PLGA-b-PEG NP without GW3965 (control); ii) GW3965 in solution form; iii) CNP; iv) TNPLyP-1; and v) TNPCREKA. The aim of this study was to determine whether GW3965-containing NPs would result in inhibition of atherosclerosis development and whether peptide conjugation would improve the delivery efficacy of GW3965.

CC/C=C\C[C@H](O)/C=C/C=C\C=C\C=C\[C@@H](O)[C@@H](O)C/C=C\CCC(=O)O [RvD1]
liver macrophage infiltration (change) [1]: −15%

Ac2-26 peptide: annexin A1 N-terminal mimetic peptide that acts on the formyl peptide receptor ALX/FPR2 (Ac-AMVSEFLKQAWFIENEEQEYVQTVK; UniProt P04083 2-26, looked up, fragment)
blockade of zymosan-stimulated PMN infiltration [2]: approximately 30%

O=C(O)Cc1cccc(OCCCN(Cc2cccc(C(F)(F)F)c2Cl)CC(c2ccccc2)c2ccccc2)c1 [GW3965, 3-(3-(2-chloro-3-trifluoromethylbenzyl-2,2diphenylethylamino)proproxy), phenylacetic acid]
production of MCP-1 and TNFα proteins (MCP-1 and TNFα): substantially suppressed | reduction in lesion area compared with controls [3]: pronounced reduction
